Assay results from patent publication US9955691B2, “Macrocyclic picolinamides as fungicides” (DOW AGROSCIENCES LLC, priority 2014, dated 2018).
Where two headings read alike, the source gives them in different places. Values belong to the compound of their own block, whether it stands above or below them.

Key:
[1] = system: Puccinia triticina; assay: Fungicidal activity: Wheat Brown Rust (PUCCRT); type: in vivo; conditions: for pest or weed control at 100 µg/mL: High Volume (100 ppm); for pest or weed control at 121.5 g/ha: Low Volume (121.5 g/H)
Outline: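 Wheat seedlings (Yuma, first leaf) sprayed to run-off with compound in acetone/water with Triton X-100, inoculated with Puccinia triticina before or after treatment. Held overnight in dark dew at 22° C, then greenhouse at 24° C; percent disease control from severity versus untreated plants.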

[2] = system: Mycosphaerella graminicola; Anamorph: Septoria tritici; assay: Fungicidal activity: Leaf Blotch of Wheat (SEPTTR); type: in vivo; conditions: Zymoseptoria tritici; for pest or weed control at 121.5 g/ha: Low Volume (121.5 g/H)
Outline: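 Compounds were dissolved in acetone, diluted with nine volumes of water containing 110 ppm Triton X-100, and sprayed to run-off on first-leaf Yuma wheat seedlings inoculated with Septoria tritici spores before or after treatment. Plants were held in a dew chamber, then a 20° C. greenhouse. Percent control was derived from disease severity relative to untreated plants.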

[3] = 24 h, 1 Day Protectant, read-out: PUCCRT 1 DP disease control
[4] = 72 h, 3 Day Curative, read-out: PUCCRT 3 DC disease control
[5] = 24 h, High Volume (100 ppm), 1 Day Protectant, wheat leaf blotch, read-out: SEPTTR 1 DP disease control
[6] = 72 h, High Volume (100 ppm), 3 Day Curative, wheat leaf blotch, read-out: SEPTTR 3 DC disease control

Compound: C[C@@H]1OC(=O)[C@@H](N)COC[C@H](CC2CCCCC2)[C@H]1CC1CCCCC1.Cl
melting point: 191 to 197 °C (dec.)

Compound: COc1ccnc(C(=O)N[C@H]2COC[C@H](Cc3ccccc3)[C@@H](Cc3ccccc3)[C@H](C)OC2=O)c1O [Cmpd. 112, N-((3S,7R,8R,9S)-7,8-dibenzyl-9-methyl-2-oxo-1,5-dioxonan-3-yl)-3-hydroxy-4-methoxypicolinamide]
melting point: 69 to 72 °C
pest or weed control at 100 µg/mL [1, 3]: < 70%
pest or weed control at 100 µg/mL [1, 4]: < 70%
pest or weed control at 100 µg/mL ([2]; 24 h, read-out: SEPTTR 1 DP disease control): < 70%
pest or weed control at 100 µg/mL ([2]; 72 h, read-out: SEPTTR 3 DC disease control): < 70%

Compound: COc1ccnc(C(=O)N[C@H]2COC[C@H](CCc3ccccc3)[C@@H](CCc3ccccc3)[C@H](C)OC2=O)c1OCOC(C)=O [compound 4]
melting point: 42 to 47 °C
pest or weed control at 100 µg/mL [1, 3]: > 70%
pest or weed control at 121.5 g/ha [1, 3]: > 70%
pest or weed control at 100 µg/mL [1, 4]: > 70%
pest or weed control at 121.5 g/ha [1, 4]: < 70%
pest or weed control at 100 µg/mL [2, 5]: > 70%
pest or weed control at 121.5 g/ha ([2]; 24 h, 1 Day Protectant, wheat leaf blotch, read-out: SEPTTR 1 DP disease control): > 70%
pest or weed control at 100 µg/mL [2, 6]: > 70%
pest or weed control at 121.5 g/ha ([2]; 72 h, 3 Day Curative, wheat leaf blotch, read-out: SEPTTR 3 DC disease control): > 70%

Compound: C=C(C)COC[C@@H]1[C@@H](Cc2ccccc2)COC[C@H](NC(=O)c2nccc(OC)c2OCOC(C)=O)C(=O)O[C@H]1C [compound 11]
melting point: 35 to 40 °C

Compound: COc1ccnc(C(=O)N[C@H]2COC[C@H](Cc3ccccc3)[C@@H](c3ccccc3)[C@H](C)OC2=O)c1OCOC(=O)C(C)C [compound 52]
melting point: 69 to 73 °C

Compound: CCC[C@H]1COC[C@H](NC(=O)c2nccc(OC)c2O)C(=O)O[C@@H](C)[C@@H]1CC(C)C [compound 142]
pest or weed control at 100 µg/mL [1, 3]: < 70%
pest or weed control at 100 µg/mL [1, 4]: < 70%
pest or weed control at 100 µg/mL [2, 5]: < 70%
pest or weed control at 100 µg/mL [2, 6]: < 70%

Compound: COc1ccnc(C(=O)N[C@H]2COC[C@H](Cc3ccccc3)[C@@H](Cc3ccc(F)cc3)[C@H](C)OC2=O)c1O [compound 143]
pest or weed control at 100 µg/mL [1, 3]: > 70%
pest or weed control at 100 µg/mL [1, 4]: < 70%
pest or weed control at 100 µg/mL [2, 5]: > 70%
pest or weed control at 100 µg/mL [2, 6]: < 70%

Compound: COc1ccnc(C(=O)N[C@H]2COC[C@H](CCCc3ccccc3)[C@@H](CC(C)C)[C@H](C)OC2=O)c1O [compound 144]
pest or weed control at 100 µg/mL [1, 3]: > 70%
pest or weed control at 100 µg/mL [1, 4]: > 70%
pest or weed control at 100 µg/mL [2, 5]: > 70%
pest or weed control at 100 µg/mL [2, 6]: > 70%

Compound: COc1ccnc(C(=O)N[C@H]2COC[C@H](Cc3ccc(Cl)cc3)[C@@H](CC(C)C)[C@H](C)OC2=O)c1O [compound 145]
pest or weed control at 100 µg/mL [1, 3]: > 70%
pest or weed control at 100 µg/mL [1, 4]: > 70%
pest or weed control at 100 µg/mL [2, 5]: > 70%
pest or weed control at 100 µg/mL [2, 6]: > 70%

Compound: COc1ccnc(C(=O)N[C@H]2COC[C@H](CCCc3ccccc3)[C@@H](Cc3ccc(OC(F)(F)F)cc3)[C@H](C)OC2=O)c1O [compound 146]
pest or weed control at 100 µg/mL [1, 3]: < 70%
pest or weed control at 100 µg/mL [1, 4]: < 70%
pest or weed control at 100 µg/mL [2, 5]: < 70%
pest or weed control at 100 µg/mL [2, 6]: < 70%

Compound: COc1ccnc(C(=O)N[C@H]2COC[C@H](Cc3ccc(C(F)(F)F)cc3)[C@@H](Cc3ccc(F)cc3)[C@H](C)OC2=O)c1O [compound 147]
pest or weed control at 100 µg/mL [1, 3]: > 70%
pest or weed control at 100 µg/mL [1, 4]: < 70%
pest or weed control at 100 µg/mL [2, 5]: > 70%
pest or weed control at 100 µg/mL [2, 6]: < 70%

Compound: COc1ccnc(C(=O)N[C@H]2COC[C@H](Cc3ccccc3)[C@@H](CCC(C)C)[C@H](C)OC2=O)c1O [compound 148]
pest or weed control at 100 µg/mL [1, 3]: < 70%
pest or weed control at 100 µg/mL [1, 4]: < 70%
pest or weed control at 100 µg/mL [2, 5]: > 70%
pest or weed control at 100 µg/mL [2, 6]: > 70%

Compound: CCC[C@H]1COC[C@H](NC(=O)c2nccc(OC)c2O)C(=O)O[C@@H](C)[C@@H]1c1ccccc1 [compound 152]
pest or weed control at 100 µg/mL [1, 3]: > 70%
pest or weed control at 100 µg/mL [1, 4]: > 70%
pest or weed control at 100 µg/mL [2, 5]: > 70%
pest or weed control at 100 µg/mL [2, 6]: > 70%

Compound: COc1ccnc(C(=O)N[C@H]2COC[C@H](CC3CC3)[C@@H](Cc3ccc(F)cc3)[C@H](C)OC2=O)c1O [compound 153]
pest or weed control at 100 µg/mL [1, 3]: > 70%
pest or weed control at 100 µg/mL [1, 4]: > 70%
pest or weed control at 100 µg/mL [2, 5]: > 70%
pest or weed control at 100 µg/mL [2, 6]: > 70%

Compound: COc1ccnc(C(=O)N[C@H]2COC[C@H](CC3CC3)[C@@H](c3ccccc3)[C@H](C)OC2=O)c1O [compound 154]
pest or weed control at 100 µg/mL [1, 3]: > 70%
pest or weed control at 100 µg/mL [1, 4]: > 70%
pest or weed control at 100 µg/mL [2, 5]: > 70%
pest or weed control at 100 µg/mL [2, 6]: > 70%

Compound: C[C@@H]1OC(=O)[C@@H](NC(=O)OC(C)(C)C)COC[C@H](c2ccccc2)[C@H]1c1ccccc1 [compound 204]
melting point: 63 to 71 °C

Compound: C[C@@H]1OC(=O)[C@@H](NC(=O)OC(C)(C)C)COC[C@H](CC2CCCCC2)[C@H]1CC1CCCCC1 [compound 206]
melting point: 44 to 50 °C

Compound: C[C@@H]1OC(=O)[C@@H](NC(=O)OC(C)(C)C)COC[C@H](CC2CCCC2)[C@H]1CC1CCCC1 [compound 215]
melting point: 95 to 99 °C

The next lines start with results.

melting point: 206 to 211 °C
Compound: C[C@H]1OC(=O)[C@@H](N)COC[C@H](Cc2ccccc2)[C@H]1Cc1ccccc1.Cl

melting point: 184 °C (dec.)
Compound: C[C@@H]1OC(=O)[C@@H](N)COC[C@H](CCc2ccccc2)[C@H]1CCc1ccccc1.Cl

melting point: 208 °C (dec.)
Compound: C=C[C@@H]1[C@@H](Cc2ccccc2)COC[C@H](N)C(=O)O[C@H]1C.Cl

melting point: 184 to 187 °C (dec.)
Compound: C=C(C)CCC[C@@H]1[C@@H](Cc2ccccc2)COC[C@H](N)C(=O)O[C@H]1C.Cl

melting point: 196 to 199 °C
Compound: CC(C)COC[C@@H]1[C@@H](Cc2ccccc2)COC[C@H](N)C(=O)O[C@H]1C.Cl

melting point: 181 to 186 °C (dec.)
Compound: COc1cccc(C[C@H]2COC[C@H](N)C(=O)O[C@@H](C)[C@@H]2Cc2cccc(OC)c2)c1.Cl

melting point: 196 to 202 °C
Compound: C[C@@H]1OC(=O)[C@@H](N)COC[C@H](Cc2ccccc2)[C@H]1Cc1ccccc1.Cl

melting point: 164 to 167 °C
Compound: C[C@@H]1OC(=O)[C@@H](N)COC[C@H](CC2CCCC2)[C@H]1CC1CCCC1.Cl

melting point: 144 to 148 °C
Compound: C[C@@H]1OC(=O)[C@@H](N)COC[C@H](Cc2ccc(Cl)cc2)[C@H]1Cc1ccc(OC(F)(F)F)cc1.Cl

melting point: 172 to 175 °C
Compound: C[C@@H]1OC(=O)[C@@H](N)COC[C@H](Cc2ccc(C(F)(F)F)cc2)[C@H]1Cc1ccc(OC(F)(F)F)cc1.Cl

melting point: 147 to 151 °C
Compound: C[C@@H]1OC(=O)[C@@H](N)COC[C@H](CCCc2ccccc2)[C@H]1CCc1ccccc1.Cl

melting point: 189 to 195 °C
Compound: C[C@@H]1OC(=O)[C@@H](N)COC[C@H](CC2CC2)[C@H]1Cc1ccccc1.Cl

melting point: 163 to 168 °C
Compound: CC(C)C[C@@H]1[C@@H](Cc2ccc(C(F)(F)F)cc2)COC[C@H](N)C(=O)O[C@H]1C.Cl

melting point: 200 to 203 °C
Compound: C[C@@H]1OC(=O)[C@@H](N)COC[C@H](Cc2ccc(Cl)cc2)[C@H]1C1CCCC1.Cl

melting point: 149 to 153 °C
Compound: CC(C)CC[C@H]1COC[C@H](N)C(=O)O[C@@H](C)[C@@H]1C1CCCC1.Cl

melting point: 209 to 214 °C
Compound: C[C@@H]1OC(=O)[C@@H](N)COC[C@H](Cc2ccccc2)[C@H]1COc1ccccc1.Cl

melting point: 184 to 187 °C
Compound: CCC[C@H]1COC[C@H](N)C(=O)O[C@@H](C)[C@@H]1Cc1ccc(F)cc1.Cl

melting point: 41 to 45 °C
Compound: C[C@@H]1OC(=O)[C@@H](NC(=O)OC(C)(C)C)COC[C@H](Cc2ccccc2)[C@H]1Cc1ccccc1 [Cmpd. 203, tert-butyl ((3S,7R,8R,9S)-7,8-dibenzyl-9-methyl-2-oxo-1,5-dioxonan-3-yl)carbamate]

melting point: 42 to 48 °C
Compound: C=C[C@@H]1[C@@H](Cc2ccccc2)COC[C@H](NC(=O)c2nccc(OC)c2OCOC(C)=O)C(=O)O[C@H]1C [compound 9]
pest or weed control at 100 µg/mL [1, 3]: > 70%
pest or weed control at 100 µg/mL [1, 4]: > 70%
pest or weed control at 100 µg/mL [2, 5]: > 70%
pest or weed control at 100 µg/mL [2, 6]: > 70%

melting point: 57 to 63 °C
Compound: C=C[C@@H]1[C@@H](Cc2ccccc2)COC[C@H](NC(=O)c2nccc(OC)c2O)C(=O)O[C@H]1C [compound 118]

melting point: 134 to 138 °C
Compound: C=C[C@@H]1[C@@H](Cc2ccccc2)COC[C@H](NC(=O)OC(C)(C)C)C(=O)O[C@H]1C [compound 205]

melting point: 84 to 88 °C
Compound: C=C(C)COC[C@@H]1[C@@H](Cc2ccccc2)COC[C@H](NC(=O)OC(C)(C)C)C(=O)O[C@H]1C [compound 208]

melting point: 47 to 51 °C
Compound: C[C@@H]1OC(=O)[C@@H](NC(=O)OC(C)(C)C)COC[C@H](Cc2ccccc2)[C@H]1Cc1ccc(OC(F)(F)F)cc1 [compound 223]

melting point: 66 to 71 °C
Compound: C[C@@H]1OC(=O)[C@@H](NC(=O)OC(C)(C)C)COC[C@H](Cc2ccccc2)[C@H]1c1ccccc1 [compound 224]

melting point: 50 to 56 °C
Compound: C[C@@H]1OC(=O)[C@@H](NC(=O)OC(C)(C)C)COC[C@H](Cc2ccc(C(F)(F)F)cc2)[C@H]1Cc1ccc(OC(F)(F)F)cc1 [compound 225]

melting point: 115 to 118 °C
Compound: CC(C)C[C@@H]1[C@@H](Cc2ccc(C(F)(F)F)cc2)COC[C@H](NC(=O)OC(C)(C)C)C(=O)O[C@H]1C [compound 229]

melting point: 113 to 115 °C
Compound: C[C@@H]1OC(=O)[C@@H](NC(=O)OC(C)(C)C)COC[C@H](Cc2ccc(Cl)cc2)[C@H]1C1CCCC1 [compound 237]
